Assay results as given in ChEMBL document CHEMBL3988442, “University of Dundee, Small-Polar-MMV Screening Library” (2021).

Tests used:
[1] = microbe, parasite or virus in culture; conditions: Mycobacterium tuberculosis, 96 h, read-out: pIC50 (converted)
[2] = microbe, parasite or virus in culture; conditions: Mycobacterium tuberculosis, 72 h, read-out: pIC50 (converted)

Row | SMILES | IC50 [1] [µM] | IC50 [2] [µM]
1 | CN(Cc1ccc(Br)cc1)C(=O)CSc1nc(N)n[nH]1 | > 501 | 152
2 | Cc1cnn(CC2CCCN2c2ncnc3c2CCC3)c1 (stereo unspecified) | > 50.1 | > 50.1
3 | CN(CC1COc2ccccc2O1)C(=O)C1CCC1 (stereo unspecified) | 173 | 182
4 | COc1cccc(CNc2ccccc2CO)n1 | > 501 | > 501
5 | COc1cccc2c1CCC2N (stereo unspecified) | > 501 | 223
6 | CCOC(=O)C(C)Nc1ccc2oc(=O)[nH]c2c1 (stereo unspecified) | 292 | 311
7 | Cc1cc(CNc2ccc(C(F)(F)F)cc2)no1 | 15.6 | 19.8
8 | Cc1n[nH]c(C)c1CCNC(=O)C1CCCN(Cc2ccco2)C1 (stereo unspecified) | > 50.1 | > 50.1
9 | COc1ccc(-c2nc(CCN)co2)cc1 | 71.4 | 80.5
10 | OCCNCCNCc1ccc(-c2ccccc2F)o1 | 40.9 | 211
11 | O=C(c1cc(C2CCCC2)no1)N1CCCCC1 | 4.9 | 2.4
12 | CCCc1nn(Cc2ccc(Br)s2)c(=O)o1 | 25.4 | 31.8
13 | CCCNC(=O)c1ccc2c(c1)NC(=O)C(C)S2 (stereo unspecified) | > 501 | 406
14 | Cc1c(C(=O)NCC(N)=O)oc2ccc(Cl)cc12 | 218 | 102
15 | CCC(C)(C)NC(=O)CNc1ccc2c(c1)OCCO2 | 75.9 | 95.2
16 | CCN(CC)S(=O)(=O)c1ccc(CNC(=O)c2cc(C)on2)cc1 | 26.2 | > 50.1
17 | N#Cc1ccc(OCCCN2CCNC(=O)C2)cc1 | 290 | 233
18 | Cc1cc(OC(F)F)c(C2NC(=O)CN2C)cc1C (stereo unspecified) | > 501 | > 501
19 | CC(C)CCOc1ccc(C(C)NC(=O)Cn2cccnc2=O)cc1 (stereo unspecified) | 13.2 | 8.35
20 | CCOC(=O)c1cnn(-c2ccc(OCC)cc2)c1N | 53.9 | 81.7
21 | CCc1nc(C#N)c(NCc2ccc3c(c2)OCO3)o1 | 205 | 105
22 | Cn1c2c(c(=O)n1C)CN(C(=O)c1ccco1)CCC2 | > 50.1 | > 50.1

Row | SMILES | IC50 [1] [µM] | IC50 [2] [µM]
23 | CN(C)C(=O)CCN1CCCC1c1ccsc1 (stereo unspecified) | > 501 | 196
24 | COCC(=O)NC(C)Cc1cccc(Cl)c1 (stereo unspecified) | 18.5 | 11.2
25 | CC(C)CC(NC(N)=O)C(=O)Nc1cc(F)cc(F)c1 (stereo unspecified) | > 501 | 239
26 | O=C(NCc1ccc(CO)cc1)C1CCOc2ccccc2C1 (stereo unspecified) | 12.2 | > 50.1
27 | c1csc(CSCCNC2=NCCN2)c1 | > 501 | > 501
28 | CC(NS(=O)(=O)N(C)C1CCCCC1)c1ccccn1 (stereo unspecified) | 159 | 75.6
29 | COc1cccc(N2CCC(N)C2)c1 (stereo unspecified) | 276 | 294
30 | Cc1ncsc1C(=O)NC1CCCCNC1=O (stereo unspecified) | > 501 | > 501
31 | COc1cccc(CS(=O)(=O)Nc2ccc(C)nc2)c1 | > 501 | 307
32 | CN1CCN(C(=O)c2cc(-c3cccs3)on2)CC1 | 107 | 171
33 | CN(Cc1nc(CC2CC2)no1)CC1Cc2ccccc2O1 (stereo unspecified) | 22.8 | 38
34 | Cc1cc(N(C)Cc2ccsc2)n2nc(C)c(C)c2n1 | 12.6 | 12.6
35 | COc1cccc2c1CCNCC2 | 348 | 271
36 | COc1ccc(CCN)cc1F | 247 | 304
37 | c1cc2c(cc1C1=NN=C(NC3CC3)SC1)OCCO2 | 160 | 158
38 | N[C@H]1CC[C@H](Oc2ncccc2Cl)CC1 | > 501 | 125
39 | Cc1ccc2[nH]c(CN)nc2c1C | > 501 | 246
40 | COc1ccc(CN2CCCC(Nc3cccc(F)c3)C2)cc1O (stereo unspecified) | 16.5 | 11
41 | COCCc1noc(C2CNC2)n1 | 250 | 247
42 | CNC(=O)C(C)(C)Oc1cccc(Cl)c1 | > 501 | > 501
43 | CC(C)CC(C)Oc1cc(CN)ccn1 (stereo unspecified) | > 501 | > 501
